# Experiments:
# Influenza A virus [1] = assay: Antiviral activity against influenza A virus harboring wild type M2 ion channel infected in MDCK cells assessed as viral growth inhibition preincubated with cells for 30 mins followed by viral infection and measured after 72 hrs by CCK-8 assay; type: functional, organism-based
# Influenza A virus [2] = type: functional, organism-based; conditions: A/WSN/33, MDCK, 48 h
# Influenza A virus [3] = type: functional, organism-based, A/WSN/33; conditions: mdck
# Influenza A virus [4] = type: functional, organism-based; conditions: A/WSN/33, MDCK, 48 h; remark: listed apart in the source
# Influenza A virus [5] = type: functional, organism-based, A/WSN/33; conditions: mdck; remark: listed apart in the source
# Influenza A virus [6] = type: functional, organism-based, A/WSN/33; conditions: mdck; remark: listed apart in the source
# Influenza A virus [7] = type: functional, organism-based, A/WSN/33; conditions: mdck; remark: listed apart in the source
# Influenza A virus [8] = type: functional, organism-based, A/WSN/33; conditions: mdck; remark: listed apart in the source
# Influenza A virus [9] = type: functional, organism-based, A/WSN/33; conditions: mdck; remark: listed apart in the source
# Influenza A virus [10] = type: functional, organism-based; conditions: A/HK/68 (H3N2), MDCK
# Influenza A virus [11] = type: functional, organism-based, A/WSN/33 (H1N1); conditions: mdck
compound,measurement,setting,value
C[C@H]1[C@H](N)C[C@@H]2C[C@H]1C2(C)C,IC50,"Influenza A virus [1]; Influenza A virus, MDCK",0.12 µM
COc1ccc(CNC23CC4CC(CC(C4)C2)C3)c(O)c1,EC50,Influenza A virus [2],8.74 µM
same,EC50,Influenza A virus [3],1.13 µM
CC1(C)[C@@H]2CC[C@@]1(C)[C@@H](CN)C2 [listing 1 of 2 here],IC50,"Influenza A virus [1]; Influenza A virus, MDCK",0.29 µM
CC1(C)[C@@H]2CC[C@@]1(C)[C@@H](CN)C2 [listing 2 of 2 here],IC50,Influenza A virus [1]; mdck,0.49 µM
COc1ccc(CNc2ccc(C34CC5CC(CC(C5)C3)C4)cc2)c(O)c1,EC50,Influenza A virus [4],0.66 µM
same,EC50,Influenza A virus [5],17.4 µM
same,EC50,Influenza A virus [6],22.5 µM
same,EC50,Influenza A virus [7],21.6 µM
same,EC50,Influenza A virus [2],8.04 µM
same,EC50,Influenza A virus [8],55 µM
same,EC50,Influenza A virus [3],0.66 µM
same,EC50,Influenza A virus [9],48 µM
Cc1cc(/C(=N\O)[C@@H]2C[C@@H]3C[C@H](C2C)C3(C)C)sc1Br (stereo not given in full),EC50,Influenza A virus [10],7.11 µM
same,EC50,Influenza A virus [11],5.97 µM
Cc1cc(/C(=N\O)[C@@H]2C[C@@H]3C[C@H](C2C)C3(C)C)sc1Cl (stereo not given in full),EC50,Influenza A virus [10],3.29 µM
same,EC50,Influenza A virus [11],2.45 µM
CC1[C@H]2C[C@@H](C[C@H]1/C(=N/O)c1cc(Cl)c(Cl)s1)C2(C)C (stereo not given in full),EC50,Influenza A virus [10],9.44 µM
same,EC50,Influenza A virus [11],10.2 µM
COc1ccc(CNC23CC4C5CC6CC4C(C2)C(C6)C5C3)c(O)c1,EC50,Influenza A virus [4],0.29 µM
same,EC50,Influenza A virus [5],21.2 µM
same,EC50,Influenza A virus [6],38.4 µM
same,EC50,Influenza A virus [7],17.3 µM
same,EC50,Influenza A virus [2],22 µM
same,EC50,Influenza A virus [8],47.5 µM
same,EC50,Influenza A virus [3],0.29 µM
same,EC50,Influenza A virus [9],55.8 µM
CC(N)[C@H]1C[C@H]2CC[C@]1(C)C2(C)C (stereo not given in full),IC50,"Influenza A virus [1]; Influenza A virus, MDCK",0.1 µM
Cc1cc(/C(=N\O)[C@@H]2C[C@@H]3C[C@H](C2C)C3(C)C)sc1C (stereo not given in full),EC50,Influenza A virus [10],4.84 µM
same,EC50,Influenza A virus [11],30.2 µM
Cc1ccc(/C(=N\O)[C@@H]2C[C@@H]3C[C@H](C2C)C3(C)C)s1 (stereo not given in full),EC50,Influenza A virus [10],29.1 µM
same,EC50,Influenza A virus [11],11.9 µM
COc1ccc(CNC(C)(C)C23CC4CC(CC(C4)C2)C3)c(O)c1,EC50,Influenza A virus [4],0.13 µM
same,EC50,Influenza A virus [5],19.9 µM
same,EC50,Influenza A virus [6],43.9 µM
same,EC50,Influenza A virus [7],1.8 µM
same,EC50,Influenza A virus [2],20.9 µM
same,EC50,Influenza A virus [3],0.09 µM
same,EC50,Influenza A virus [9],19.2 µM
COc1ccc(CNC23CC4C5CC6C7CC8CC6C(C5C2)C(C8)(C3)C74)c(O)c1,EC50,Influenza A virus [3],8.1 µM
CC1[C@H]2C[C@@H](C[C@H]1/C(=N/O)c1cccs1)C2(C)C (stereo not given in full),EC50,Influenza A virus [10],12.4 µM
same,EC50,Influenza A virus [11],11.8 µM
Cc1csc(/C(=N\O)[C@@H]2C[C@@H]3C[C@H](C2C)C3(C)C)c1 (stereo not given in full),EC50,Influenza A virus [10],10.8 µM
same,EC50,Influenza A virus [11],14.8 µM
NC12CC3CC(CC(C3)C1)C2 [AMANTADINE],IC50,"Influenza A virus [1]; Influenza A virus, MDCK",0.5 µM

# Source: ChEMBL document CHEMBL5512617, “Tackling Influenza A virus by M2 ion channel blockers: Latest progress and limitations” (Eur J Med Chem, 2024)
